Laboratory results as given in ChEMBL document CHEMBL3817764, “Pyrimidine-based antimalarials: design strategies and antiplasmodial effects” (Medchemcomm, 2016).

How the values were obtained:
[1] = Oral bioavailability in Sprague-Dawley rat plasma by LC/MS analysis; type: ADME, organism-based
[2] = target: Dihydroorotate dehydrogenase (quinone), mitochondrial (Homo sapiens, UniProt Q02127); assay: Inhibition of human DHODH
Plasmodium berghei = assay: Antiplasmodial against Plasmodium berghei in rat malaria model assessed as parasite suppression at 30 mg/kg measured after 4 days; type: functional
Plasmodium falciparum [3] = assay: Antimalarial activity against Plasmodium falciparum V1/S harboring DHFR N51I+C59R+S108N+I164L quadruple mutant assessed as reduction parasite growth by [3H]-hypoxanthine incorporation assay; type: functional, organism-based
Calf thymus DNA [4] = assay: Binding affinity to calf thymus DNA assessed as melting temperature (reference value: 59.5 degC); type: nucleic-acid assay; settings: Bos taurus
Calf thymus DNA [5] = assay: Binding affinity to calf thymus DNA assessed as induction of hypochromic shift in intensity of quinoline absorption band at 331 nm at 7.1 uM; type: nucleic-acid assay; settings: Bos taurus
Calf thymus DNA [6] = assay: Binding affinity to calf thymus DNA assessed as induction of red shift at 7.1 uM; type: nucleic-acid assay; settings: Bos taurus
Plasmodium falciparum [7] = assay: Antiplasmodial activity against chloroquine-resistant Plasmodium falciparum W2 by NBT assay; type: functional, organism-based
Plasmodium falciparum [8] = assay: Antiplasmodial activity against chloroquine-sensitive Plasmodium falciparum D6 by NBT assay; type: functional, organism-based

Sequence of Dihydroorotate dehydrogenase (quinone), mitochondrial (Q02127 whole entry): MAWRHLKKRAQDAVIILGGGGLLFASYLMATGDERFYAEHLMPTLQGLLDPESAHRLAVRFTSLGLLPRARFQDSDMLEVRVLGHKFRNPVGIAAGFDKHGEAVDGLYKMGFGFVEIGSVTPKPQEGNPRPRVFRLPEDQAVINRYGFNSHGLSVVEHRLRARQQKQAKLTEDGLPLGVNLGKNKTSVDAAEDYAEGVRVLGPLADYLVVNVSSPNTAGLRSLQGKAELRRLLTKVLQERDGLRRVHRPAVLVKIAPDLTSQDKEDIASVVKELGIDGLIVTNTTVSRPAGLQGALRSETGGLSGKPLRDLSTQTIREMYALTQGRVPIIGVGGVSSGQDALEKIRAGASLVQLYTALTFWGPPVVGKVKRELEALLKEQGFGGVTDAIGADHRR

Row | SMILES | IC50 (Plasmodium falciparum [7]) | IC50 (Plasmodium falciparum [8]) | further results
1 | Cc1nc(N)nc(N)c1OCCCOc1cc(Cl)c(Cl)cc1Cl | – | – | bioavailability [1]: 83%
2 | Cc1cc(Nc2ccc3ccccc3c2)n2ncnc2n1 | – | – | IC50 [2]: > 200000 nM
3 | Clc1ccc2c(NCCNc3ccnc(N4CCOCC4)n3)ccnc2c1 | – | – | Activity (Plasmodium berghei): 93.9%
4 | CC1(C)N=C(N)N=C(N)N1OCCCOc1cc(Cl)c(Cl)cc1Cl.Cl | – | – | bioavailability [1]: 1%
5 | CCc1nc(N)nc(N)c1OCCCOc1ccccc1CCC(=O)O | – | – | EC50 (Plasmodium falciparum [3]): 56 nM
6 | Clc1ccc2c(NCCCNc3nccc(N4CCCCC4)n3)ccnc2c1 | – | – | Tm (Calf thymus DNA [4]): 67.8 °C; Activity (Calf thymus DNA [5]): 23%; Activity (Calf thymus DNA [6]): 14 nm
7 | Cc1cc(N2CCN(C)CC2)nc(NCCCNc2ccnc3cc(Cl)ccc23)n1 | 16 nM | 6 nM | –
8 | Cc1cc(N2CCOCC2)nc(NCCCNc2ccnc3cc(Cl)ccc23)n1 | 16 nM | 6 nM | –
9 | Cc1cc(N2CCCCC2)nc(NCCCCCCNc2ccnc3cc(Cl)ccc23)n1 | 16 nM | 6 nM | –
10 | Clc1ccc2c(NCCCNc3nccc(N4CCOCC4)n3)ccnc2c1 | 16 nM | 6 nM | –
11 | CN1CCN(c2ccnc(NCCCNc3ccnc4cc(Cl)ccc34)n2)CC1 | 16 nM | 6 nM | –
12 | Clc1ccc2c(NCCCNc3nc(Cl)cc(Cl)n3)ccnc2c1 | 16 nM | 6 nM | –
13 | Clc1ccc2c(NCCNc3nccc(Cl)n3)ccnc2c1 | 16 nM | 6 nM | –
14 | Cc1cc(N2CCN(C)CC2)nc(NCCNc2ccnc3cc(Cl)ccc23)n1 | 16 nM | 6 nM | –
15 | Cc1cc(N2CCCCC2)nc(NCCCNc2ccnc3cc(Cl)ccc23)n1 | 16 nM | 6 nM | –
